Assay results reported in paper PMC3770947, “A cyclic GMP-dependent signalling pathway regulates bacterial phytopathogenesis” (The EMBO Journal, 2013).

Tests used:
[1] = target: T1, CYC domain of XC_0250 (CYCHis6) (Xanthomonas campestris, UniProt Q8PDU5); assay: guanylyl cyclase assay, reverse-phase HPLC and mass spectrometry; type: biochemical; details: 0.5 mM GTP, 10 mM MnCl2, pH 8.0, 25°C
T1 construct: gene XCC0240; single band of 21 kDa

full-length XC_0249 = target: T2, full-length XC_0249 (Xanthomonas campestris, UniProt Q8PDU6); assay: diguanylate cyclase assay, HPLC and mass spectrometry; type: biochemical; details: 150 μM GTP, 10 mM MgCl2, pH 7.6, 60 min
T2 construct: gene XCC0239; full-length purified protein; cNMP domain plus GGDEF domain

[2] = target: cNMP domain of XC_0249 (Xanthomonas campestris pv. campestris (Xcc) strain 8004); assay: crystal structure; XC_0249 cNMP domain with cyclic GMP bound, resolution 2.2 Å

T1 sequence (Q8PDU5 entry or part of it): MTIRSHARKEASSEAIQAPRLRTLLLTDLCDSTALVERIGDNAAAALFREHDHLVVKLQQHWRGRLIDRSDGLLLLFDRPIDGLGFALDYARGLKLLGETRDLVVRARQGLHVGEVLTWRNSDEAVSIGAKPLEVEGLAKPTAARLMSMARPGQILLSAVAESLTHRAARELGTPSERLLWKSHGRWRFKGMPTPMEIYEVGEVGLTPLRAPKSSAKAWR
T2 sequence (Q8PDU6 entry or part of it): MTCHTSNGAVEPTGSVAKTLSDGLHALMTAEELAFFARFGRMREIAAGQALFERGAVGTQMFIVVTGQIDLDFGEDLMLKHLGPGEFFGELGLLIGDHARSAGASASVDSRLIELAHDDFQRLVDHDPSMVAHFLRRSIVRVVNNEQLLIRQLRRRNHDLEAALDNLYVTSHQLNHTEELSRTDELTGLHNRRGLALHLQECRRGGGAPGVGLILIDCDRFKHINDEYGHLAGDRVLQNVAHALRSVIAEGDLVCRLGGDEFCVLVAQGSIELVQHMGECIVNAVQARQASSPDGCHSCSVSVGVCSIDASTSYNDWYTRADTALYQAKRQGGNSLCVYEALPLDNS

Row | Compound | guanylyl cyclase assay, reverse-phase HPLC and mass spectrometry [1] | other results
1 | Nc1nc2c(ncn2[C@@H]2O[C@H](COP(=O)(O)OP(=O)(O)OP(=O)(O)O)[C@@H](O)[C@H]2O)c(=O)[nH]1 [GTP] | This protein had guanylate cyclase activity, converting GTP to cyclic GMP | –
2 | Nc1nc2c(ncn2[C@@H]2O[C@@H]3COP(=O)(O)O[C@H]3[C@H]2O)c(=O)[nH]1 [cyclic GMP] | This protein had guanylate cyclase activity, converting GTP to cyclic GMP | –
3 | Nc1nc2c(ncn2[C@@H]2O[C@@H]3COP(=O)(O)O[C@H]4[C@@H](O)[C@H](n5cnc6c(=O)[nH]c(N)nc65)O[C@@H]4COP(=O)(O)O[C@H]3[C@H]2O)c(=O)[nH]1 [cyclic di-GMP] | – | diguanylate cyclase assay, HPLC and mass spectrometry (full-length XC_0249): The identity of cyclic di-GMP as a product was confirmed by mass spectrometry
4 | cNMP domain of XC_0249 (domain or fragment) | – | stoichiometry N [2]: 2
